Test results from patent US20060094763A1, “Polymorphic forms of 6-[2-(methylcarbomoyl) phenyl sulfanyl]-3-E-[2-(pyridin-2-yl)ethenyl]indazole” (Agouron Pharmaceuticals, Inc., priority 2004, published 2006).
In brackets after ≈: the same amount, converted by molar mass.

Key:
[1] = Salt screening: solubility of in situ acid salts of Compound 1 in 100 mM acid solutions (HPLC); settings: 100 mM acid solution, excess solid
Description: To ensure that the maximum solubility level was reached, the samples were checked periodically to ensure that excess solid was present. After 8 days 400 μL of the mixture was removed and centrifuged at 14,000 rpm for 5 minutes. 100 μL of the supernatant was then removed, diluted with 900 μL of a 1:1 mixture of acetonitrile/methanol, and then analyzed by HPLC.

[2] = Aqueous solubility of polymorphic forms of Compound 1; format: physicochemical; settings: for solubility: aqueous medium
[3] = Physical and chemical storage stability of polymorphic forms (heat, humidity); settings: for Time stable: 40° C. under 75% relative humidity
[4] = Human metabolites of Compound 1; settings: in vivo
Source text: The chemical structures of three oxygenated metabolites, M12 (the sulfoxide of Compound 1), M15 (the sulfone of Compound 1) and M9 (a mixed sulfoxidized/N-oxidized product of Compound 1), were confirmed based on the comparison in chromatographic retention times and mass spectra of the in-vivo metabolites to their authentic reference standards. The chemical structure of the glucuronide (M7) of Compound 1 was confirmed by the isolation of the metabolite followed by NMR determination. […] The proposed structures (or elemental compositions) of M5 and its major fragment ions (m/z 342, 311, 265, and 237) were all highly consistent with the elemental compositions determined by accurate mass measurement (with mass measurement accuracy ≦1.2 ppm for all). The definitive structures of metabolites M8a, M12a and M14 are currently unknown.

With Benzene sulfonic acid as the compound, how does the “Solubility 8 days” value ([1]; stirred 8 days in the dark) read?
Its value is 10 µg/mL.

And the “Solubility 14 days” value ([1]; stirred 14 days in the dark)?
The value was 11 µg/mL.

For `CNC(=O)c1ccccc1Sc1ccc2c(/C=C/c3ccccn3)n[nH]c2c1` [Form I, 6-[2-(methylcarbamoyl)phenylsulfanyl]-3-E-[2-(pyridin-2-yl)ethenyl]indazole], which solubility ([2]; pH 2, simulated gastric fluid, pH 2) is on record?
Its solubility is 179 µg/mL (≈ 463 µM).

What about the Aqueous solubility ([2]; pH 6.5) of the same compound?
Its Aqueous solubility is 9 µg/mL.

What about the Time stable [3] of the same compound?
The Time stable was “at least 13 days”.

And the Chemical stability ([3]; 80° C.)?
The Chemical stability was “chemically stable”.

For `CNC(=O)c1ccccc1Sc1ccc2c(/C=C/c3ccccn3)n[nH]c2c1` [Compound 1, 6-[2-(methylcarbamoyl)phenylsulfanyl]-3-E-[2-(pyridin-2-yl)ethenyl]indazole], which Metabolism in humans [4] is on record?
The Metabolism in humans was “extensive metabolism”.

With `CNC(=O)c1ccccc1Sc1ccc2c(/C=C/c3ccccn3)n[nH]c2c1` [Form IV, 6-[2-(methylcarbamoyl)phenylsulfanyl]-3-E-[2-(pyridin-2-yl)ethenyl]indazole] as the compound, how does the solubility ([2]; pH 1, simulated gastric fluid, pH 1) read?
Its solubility is ~550 µg/mL (≈ 1420 µM).

What about the solubility ([2]; pH 4, aqueous buffer, pH 4) of the same compound?
Its solubility is ~6 µg/mL (≈ 15.5 µM).

What about the solubility ([2]; pH 8, aqueous buffer, pH 8) of the same compound?
The solubility was ~2 µg/mL (≈ 5.17 µM).

And the Aqueous solubility ([2]; pH 2)?
The Aqueous solubility was “about 157 μg/mL”.

And the Aqueous solubility ([2]; pH 6.5)?
Its Aqueous solubility is “about 2 μg/mL”.

What about the Time stable [3] of the same compound?
Its Time stable is “at least 30 days”.

What about the “Time physically and chemically stable” value ([3]; 80° C.) of the same compound?
The value was “at least 30 days”.
